Test results as given in patent publication US20150094474A1, “AGRICULTURAL CHEMICALS” (Redx Pharma Ltd., priority 2012, published 2015).

Tests used:
barley = test: Herbicidal bioassay, barley (% necrosis); type: in vivo
Summary of the method: (§1)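 Scoring of % necrosis followed EPPO guideline PP1/135 at specified growth intervals, five replicates per species and treatment. Plants at the 2-4 true leaf stage received Potter-tower sprays of DMSO-diluted compounds across six levels from 0.0001% to 0.05%, with water and DMSO controls.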

peas = test: Herbicidal bioassay, peas (% necrosis); type: in vivo
Summary of the method: as §1

## COC(=O)c1ccc(CNS(C)(=O)=O)cc1S(=O)(=O)NC(=O)Nc1nc(OC)cc(OC)n1 [Mesosulfuron (6), Mesosulfuron methyl ester, reference compound]
barley; Dose 0.000001, Day 0
  Sum of % necrosis in barley: C (less than 50% necrosis)
barley; Dose 0.000001, Day 1
  Sum of % necrosis in barley: C (less than 50% necrosis)
barley; Dose 0.000001, Day 3
  Sum of % necrosis in barley: C (less than 50% necrosis)
barley; Dose 0.000001, Day 7
  Sum of % necrosis in barley: C (less than 50% necrosis)
barley; Dose 0.000001, Day 10
  Sum of % necrosis in barley: C (less than 50% necrosis)
barley; Dose 0.000001, Day 14
  Sum of % necrosis in barley: C (less than 50% necrosis)
barley; Dose 0.000005, Day 0
  Sum of % necrosis in barley: C (less than 50% necrosis)
barley; Dose 0.000005, Day 1
  Sum of % necrosis in barley: C (less than 50% necrosis)
barley; Dose 0.000005, Day 3
  Sum of % necrosis in barley: C (less than 50% necrosis)
barley; Dose 0.000005, Day 7
  Sum of % necrosis in barley: C (less than 50% necrosis)
barley; Dose 0.000005, Day 10
  Sum of % necrosis in barley: C (less than 50% necrosis)
barley; Dose 0.000005, Day 14
  Sum of % necrosis in barley: C (less than 50% necrosis)
barley; Dose 0.00001, Day 0
  Sum of % necrosis in barley: C (less than 50% necrosis)
barley; Dose 0.00001, Day 1
  Sum of % necrosis in barley: C (less than 50% necrosis)
barley; Dose 0.00001, Day 3
  Sum of % necrosis in barley: C (less than 50% necrosis)
barley; Dose 0.00001, Day 7
  Sum of % necrosis in barley: C (less than 50% necrosis)
barley; Dose 0.00001, Day 10
  Sum of % necrosis in barley: C (less than 50% necrosis)
barley; Dose 0.00001, Day 14
  Sum of % necrosis in barley: C (less than 50% necrosis)
barley; Dose 0.00005, Day 0
  Sum of % necrosis in barley: C (less than 50% necrosis)
barley; Dose 0.00005, Day 1
  Sum of % necrosis in barley: C (less than 50% necrosis)
barley; Dose 0.00005, Day 3
  Sum of % necrosis in barley: C (less than 50% necrosis)
barley; Dose 0.00005, Day 7
  Sum of % necrosis in barley: C (less than 50% necrosis)
barley; Dose 0.00005, Day 10
  Sum of % necrosis in barley: C (less than 50% necrosis)
barley; Dose 0.00005, Day 14
  Sum of % necrosis in barley: C (less than 50% necrosis)
barley; Dose 0.0001, Day 0
  Sum of % necrosis in barley: C (less than 50% necrosis)
barley; Dose 0.0001, Day 1
  Sum of % necrosis in barley: C (less than 50% necrosis)
barley; Dose 0.0001, Day 3
  Sum of % necrosis in barley: C (less than 50% necrosis)
barley; Dose 0.0001, Day 7
  Sum of % necrosis in barley: C (less than 50% necrosis)
barley; Dose 0.0001, Day 10
  Sum of % necrosis in barley: B (50%-80% necrosis)
barley; Dose 0.0001, Day 14
  Sum of % necrosis in barley: B (50%-80% necrosis)
barley; Dose 0.0005, Day 0
  Sum of % necrosis in barley: C (less than 50% necrosis)
barley; Dose 0.0005, Day 1
  Sum of % necrosis in barley: C (less than 50% necrosis)
barley; Dose 0.0005, Day 3
  Sum of % necrosis in barley: C (less than 50% necrosis)
barley; Dose 0.0005, Day 7
  Sum of % necrosis in barley: C (less than 50% necrosis)
barley; Dose 0.0005, Day 10
  Sum of % necrosis in barley: B (50%-80% necrosis)
barley; Dose 0.0005, Day 14
  Sum of % necrosis in barley: B (50%-80% necrosis)
peas; Dose 0.000001, Day 0
  Sum of % necrosis in Pea: C (less than 50% necrosis)
peas; Dose 0.000001, Day 1
  Sum of % necrosis in Pea: C (less than 50% necrosis)
peas; Dose 0.000001, Day 3
  Sum of % necrosis in Pea: A (over 80% necrosis)
peas; Dose 0.000001, Day 7
  Sum of % necrosis in Pea: A (over 80% necrosis)
peas; Dose 0.000001, Day 10
  Sum of % necrosis in Pea: A (over 80% necrosis)
peas; Dose 0.000001, Day 14
  Sum of % necrosis in Pea: A (over 80% necrosis)
peas; Dose 0.000005, Day 0
  Sum of % necrosis in Pea: C (less than 50% necrosis)
peas; Dose 0.000005, Day 1
  Sum of % necrosis in Pea: C (less than 50% necrosis)
peas; Dose 0.000005, Day 3
  Sum of % necrosis in Pea: B (50%-80% necrosis)
peas; Dose 0.000005, Day 7
  Sum of % necrosis in Pea: A (over 80% necrosis)
peas; Dose 0.000005, Day 10
  Sum of % necrosis in Pea: A (over 80% necrosis)
peas; Dose 0.000005, Day 14
  Sum of % necrosis in Pea: A (over 80% necrosis)
peas; Dose 0.00001, Day 0
  Sum of % necrosis in Pea: C (less than 50% necrosis)
peas; Dose 0.00001, Day 1
  Sum of % necrosis in Pea: C (less than 50% necrosis)
peas; Dose 0.00001, Day 3
  Sum of % necrosis in Pea: A (over 80% necrosis)
peas; Dose 0.00001, Day 7
  Sum of % necrosis in Pea: A (over 80% necrosis)
peas; Dose 0.00001, Day 10
  Sum of % necrosis in Pea: A (over 80% necrosis)
peas; Dose 0.00001, Day 14
  Sum of % necrosis in Pea: A (over 80% necrosis)
peas; Dose 0.00005, Day 0
  Sum of % necrosis in Pea: C (less than 50% necrosis)
peas; Dose 0.00005, Day 1
  Sum of % necrosis in Pea: C (less than 50% necrosis)
peas; Dose 0.00005, Day 3
  Sum of % necrosis in Pea: B (50%-80% necrosis)
peas; Dose 0.00005, Day 7
  Sum of % necrosis in Pea: A (over 80% necrosis)
peas; Dose 0.00005, Day 10
  Sum of % necrosis in Pea: A (over 80% necrosis)
peas; Dose 0.00005, Day 14
  Sum of % necrosis in Pea: A (over 80% necrosis)
peas; Dose 0.0001, Day 0
  Sum of % necrosis in Pea: C (less than 50% necrosis)
peas; Dose 0.0001, Day 1
  Sum of % necrosis in Pea: C (less than 50% necrosis)
peas; Dose 0.0001, Day 3
  Sum of % necrosis in Pea: A (over 80% necrosis)
peas; Dose 0.0001, Day 7
  Sum of % necrosis in Pea: A (over 80% necrosis)
peas; Dose 0.0001, Day 10
  Sum of % necrosis in Pea: A (over 80% necrosis)
peas; Dose 0.0001, Day 14
  Sum of % necrosis in Pea: A (over 80% necrosis)
peas; Dose 0.0005, Day 0
  Sum of % necrosis in Pea: C (less than 50% necrosis)
peas; Dose 0.0005, Day 1
  Sum of % necrosis in Pea: C (less than 50% necrosis)
peas; Dose 0.0005, Day 3
  Sum of % necrosis in Pea: C (less than 50% necrosis)
peas; Dose 0.0005, Day 7
  Sum of % necrosis in Pea: A (over 80% necrosis)
peas; Dose 0.0005, Day 10
  Sum of % necrosis in Pea: A (over 80% necrosis)
peas; Dose 0.0005, Day 14
  Sum of % necrosis in Pea: A (over 80% necrosis)
